Source: patent publication EP1531819B1, “USE OF I kappa B KINASE INHIBITORS FOR THE TREATMENT OF PAIN” (Sanofi-Aventis Deutschland GmbH, priority 2002, dated 2004)

What was measured:
[1] = system: Kaolin/Carrageenan induzierte Kniegelenksentzündung bei der Ratte; assay: Model 2: kaolin/carrageenan-induced knee joint inflammation, responses of spinal neurons to pressure on the knee; assay type: in vivo
Excerpt: Modell: Zymosan-induzierte Pfotenentzündung bei der Ratte; Parameter: Pfotenwegziehzeit oder Pfotenwegziehschwelle bei thermischer oder mechanischer Stimulation der Hinterpfote. • 2. Modell: Kaolin/Carrageenan induzierte Kniegelenksentzündung bei der Ratte; Parameter: Reaktion spinaler Neurone bei Druckreizung des Knies.
Versuchsdurchführung: Bei Ratten wurde in Trapanal-Narkose der Wirbelkanal eröffnet und Rückenmarksneurone, die "Schmerzimpulse" aus dem Kniegelenk verarbeiteten, identifiziert. Nach Identifizierung wurde eine Langzeitableitung durchgeführt, in der die Aktivität der Nervenzelle vor und während der Entwicklung einer akuten Entzündung im Kniegelenk registriert wurde. Dazu wurden in einer Kontrollperiode vor Induktion der Entzündung und nach Induktion der Entzündung für mehrere Stunden die Antworten auf nicht noxische und noxische Reizung am Kniegelenk gemessen.
Die akute Entzündung wurde durch die intraartikuläre Injektion einer Kaolin und Carrageenan Suspension (etwa 150 µl) induziert. In Kontrollexperimenten wurde nur das Vehikel auf die Rückenmarksoberfläche aufgebracht, um die Entwicklung der Übererregbarkeit unter Kontrollbedingungen darzustellen. In der Regel fand diese Entwicklung der Übererregbarkeit innerhalb von 2 bis 4 Stunden statt, und sie äußerte sich in einer starken Zunahme der Antworten auf nicht noxische und noxische Reizung des Kniegelenks (Tab. 3). […] Dann wurden die Antworten der Zelle auf nichtnoxische und noxische Reizung wie in den Kontrollexperimenten weiter verfolgt.

[2] = system: Zymosan-induzierte Pfotenentzündung bei der Maus; assay: Model 3: zymosan-induced paw inflammation, paw withdrawal latency on thermal stimulation (Hargreaves Test), AUC; assay type: in vivo; details: for Statistischer Unterschied gegenüber Vehikel: thermische Hyperalgesie AUC; for AUC Mittelwert [Maß für Hyperalgesie]: thermische Hyperalgesie
Protocol: Parameter: Pfotenwegziehzeit bei thermischer Stimulation der Hinterpfote. Versuchsdurchführung: In Kurzzeitnarkose mit Isofluran wurde dem Versuchstier 25 μl einer Suspension, die 50 mg/ml Zymosan enthielt, in die rechte Hinterpfote injiziert. Dann wurde die […] quantitativ wie folgt bestimmt: Bestimmung der Pfotenwegziehzeit bei thermischer Stimulation (Hargreaves Test; s.o.). Das Versuchstier wurde in […] Versuchstier nach der Erkundungsphase (etwa 5 min) nicht mehr bewegte, wurde […] zu stimulierenden Hinterpfote positioniert und […]. Die […] ab, so dass die Hauttemperatur […] linear […] Pfote […] ab. Die Pfotentemperatur zum Zeitpunkt des Wegziehens ist für das Tier gerade eben unangenehm, […] von thermischer Schmerzschwelle. Kurz vor Zymosan-Injektion und für 7 bis 14 Tage nach Injektion wurde […] an der rechten und linken Hinterpfote bestimmt. Anschließend wurde […] Integral der Fläche, die aus […] und […] Pfote gebildet wurde, bestimmt (AUC, area between the curves, s. Tabellen 5 und 6). Je größer dieser Wert ist, umso […], und je kleiner der Wert bei Tieren, die die Substanz erhalten, desto stärker ist der Therapieerfolg. In einer 7-Tage Studie induzierte die Zymosan Injektion in […], Tab. 5). In den anderen Gruppen wurde die Substanzgabe einen Tag nach Zymosan Injektion, […] schon […]. […] Die […] Studie (7 Tage) ergab, dass die AUC unter Substanzgabe dosisabhängig abnahm. […] In einer parallel […] von Tieren wurde Paracetamol in einer sehr hohen Dosis ebenfalls zweimal am Tag verabreicht. […] Paracetamol (Tab. 5). […] […] Zymosan Injektion und Dosierschema […] zuvor beschriebenen Studie. Einziger Unterschied war, dass die weitere Studie über 14 Tage lief.

[3] = system: Zymosan-induzierte Pfotenentzündung bei der Ratte; assay: Model 1b: zymosan-induced paw inflammation, paw withdrawal threshold on mechanical stimulation (von Frey Test); assay type: in vivo
[4] = system: Zymosan-induzierte Pfotenentzündung bei der Maus; assay: Model 4: zymosan-induced paw inflammation, spontaneous running wheel performance, AUC; assay type: in vivo, C57/B6 Mäuse; details: for AUC Mittelwert (Laufradaktivität): 7 days after Zymosan; for Statistischer Unterschied gegenüber Vehikel: Laufradaktivität AUC
Excerpt: Das Versuchstier hat in seinem Haltungskäfig Zugang zu einem Laufrad, dessen Umdrehungen elektronisch registriert werden. Die C57/B6 Mäuse benutzen in den Nachtstunden freiwillig das Laufrad und legen im Mittel nach einer einwöchigen Gewöhnungsphase 4100 Meter/Nacht zurück. Nach Zymosan Injektion ist die nächtliche Laufstrecke verkürzt. Diese Abnahme der Laufleistung gilt als Parameter für entzündungsschmerzbedingte Funktionseinschränkung. Versuchsdurchführung: Die Laufstrecke/24 Std. wurde nach einer Eingewöhnungsphase eine Woche lang zur Bestimmung der Baseline gemessen. Dann wurde in Kurzzeitnarkose mit Isofluran dem Versuchstier 25 µl einer Suspension, die […] Zymosan enthielt, in die rechte Hinterpfote injiziert. Anschließend wurde Laufstrecke/24 Std. während der nächsten sieben Tage ermittelt. In der Auswertung wurde die Fläche unter der Kurve der Laufstreckenwerte bestimmt (AUC, Tab. 7): je kleiner die AUC, desto geringer die Laufleistung in der Woche nach Zymosan Injektion. […] Die Substanzgabe wurde am Tag 1 nach Zymosan Injektion begonnen.

[5] = system: Zymosan-induzierte Pfotenentzündung bei der Ratte; assay: Model 1a: zymosan-induced paw inflammation, paw withdrawal latency on thermal stimulation (Hargreaves Test); assay type: in vivo
[6] = etwa 30 µl of 10 µM Lösung on the spinal cord, 30-60 min nach K/C-Injektion
[7] = etwa 30 µl of 10 µM Lösung on the spinal cord, 60-120 min nach K/C-Injektion
[8] = etwa 30 µl of 10 µM Lösung on the spinal cord, 120-180 min nach K/C-Injektion
[9] = etwa 30 µl of 10 µM Lösung on the spinal cord, 180-240 min nach K/C-Injektion
[10] = etwa 30 µl of 10 µM Lösung on the spinal cord, Baseline
[11] = 7 days, 2.8 mg/kg oral twice daily
[12] = 7 days, 25 mg/kg oral twice daily
[13] = 7 days, 75 mg/kg oral twice daily
[14] = je 30 mg/kg i.p. (x3), 0,5 h nach Zymosan-Injektion
[15] = je 30 mg/kg i.p. (x3), 1 h nach Zymosan-Injektion
[16] = je 30 mg/kg i.p. (x3), 2 h nach Zymosan-Injektion
[17] = je 30 mg/kg i.p. (x3), 3 h nach Zymosan-Injektion
[18] = je 30 mg/kg i.p. (x3), 4 h nach Zymosan-Injektion
[19] = je 30 mg/kg i.p. (x3), 5 h nach Zymosan-Injektion
[20] = je 30 mg/kg i.p. (x3), 6 h nach Zymosan-Injektion
[21] = je 30 mg/kg i.p. (x3), 7 h nach Zymosan-Injektion
[22] = je 30 mg/kg i.p. (x3), 24 h nach Zymosan-Injektion
[23] = je 30 mg/kg i.p. (x3), Baseline -0,5 h

CNc1nccc(-c2cc3cc(C(=O)N[C@@H](CN(c4ccccc4)c4ccccc4)c4n[nH]c(=O)o4)ccc3[nH]2)n1 [Verbindung 13, 2-(2-Methylamin-pyrimidin-4-yl)-1H-indol-5-carbonsäure [(S)-2-diphenylamin-1-(5-oxo-4,5-dihydro-[1,3,4]oxadiazol-2-yl)-ethyl]-amid]
Wirkung auf die Antworten auf noxische Kniegelenksstimulation, comparison with Indomethacin ([1]; comparison with published data of an earlier study): insgesamt stärker ausgeprägt als die Wirkung von Indomethacin | Entwicklung der spinalen Übererregbarkeit gegenüber den Kontrollen ([1]; etwa 30 µl of 10 µM Lösung on the spinal cord): beinahe vollständig unterdrückt | Neuronale Antworten vor und während Kniegelenksentzündung, Nicht-noxische Reizung am Kniegelenk, Mittelwert [1, 6]: 8,66 imp/15s | Neuronale Antworten vor und während Kniegelenksentzündung, Noxische Reizung am Kniegelenk, Mittelwert [1, 6]: 62,3 imp/15s | Neuronale Antworten vor und während Kniegelenksentzündung, Nicht-noxische Reizung am Kniegelenk, Mittelwert [1, 7]: 2,71 imp/15s | Neuronale Antworten vor und während Kniegelenksentzündung, Noxische Reizung am Kniegelenk, Mittelwert [1, 7]: 26,9 imp/15s | Neuronale Antworten vor und während Kniegelenksentzündung, Nicht-noxische Reizung am Kniegelenk, Mittelwert [1, 8]: 11,16 imp/15s | Neuronale Antworten vor und während Kniegelenksentzündung, Noxische Reizung am Kniegelenk, Mittelwert [1, 8]: 8,5 imp/15s | Neuronale Antworten vor und während Kniegelenksentzündung, Nicht-noxische Reizung am Kniegelenk, Mittelwert [1, 9]: 39,78 imp/15s | Neuronale Antworten vor und während Kniegelenksentzündung, Noxische Reizung am Kniegelenk, Mittelwert [1, 9]: 19,5 imp/15s | Neuronale Antworten vor und während Kniegelenksentzündung, Nicht-noxische Reizung am Kniegelenk, Mittelwert [1, 10]: 0,92 imp/15s | Neuronale Antworten vor und während Kniegelenksentzündung, Noxische Reizung am Kniegelenk, Mittelwert [1, 10]: 0,8 imp/15s | thermische Hyperalgesie, comparison with Paracetamol ([2]; 7-day study, twice daily): stärker als Paracetamol | Effekte on thermische Hyperalgesie in der hohen Dosierung ([2]; 14-day study, high dose (25 mg/kg)): gleich stark | minimal effective dose ([2]; 168 h, 7-day study, oral twice daily, read-out: Einzeldosis from which Therapieerfolg signifikant gegenüber der Vehikelgruppe): ≥ 8.3 mg/kg | Statistischer Unterschied gegenüber Vehikel [2, 11]: nein | Statistischer Unterschied gegenüber Vehikel [2, 12]: ja | Statistischer Unterschied gegenüber Vehikel [2, 13]: ja | Statistischer Unterschied gegenüber Vehikel ([2]; 14 days, 25 mg/kg twice daily): ja | AUC Mittelwert [Maß für Hyperalgesie] ([2]; 7 days after Zymosan, 2.8 mg/kg oral twice daily): 40.4 | AUC Mittelwert [Maß für Hyperalgesie] ([2]; 7 days after Zymosan, 25 mg/kg oral twice daily): 19.4 | AUC Mittelwert [Maß für Hyperalgesie] ([2]; 7 days after Zymosan, 75 mg/kg oral twice daily): 17.4 | AUC Mittelwert [Maß für Hyperalgesie] ([2]; 14 days after Zymosan, 25 mg/kg twice daily): 47.6 | mechanische Hyperalgesie ([3]; je 30 mg/kg i.p. (x3)): signifikant reduziert | mechanische Hyperalgesie, duration of effect nach der letzten Substanzgabe ([3]; je 30 mg/kg i.p. (x3)): ≥ 18 Std. | mechanische Hyperalgesie, onset of effect nach Zymosan Injektion ([3]; je 30 mg/kg i.p. (x3)): 1 Stunde | Veränderung der Pfotenwegziehschwelle (%) Mittelwert [3, 14]: -37,4% | Veränderung der Pfotenwegziehschwelle (%) Mittelwert [3, 15]: -43,1% | Veränderung der Pfotenwegziehschwelle (%) Mittelwert [3, 16]: -36,0% | Veränderung der Pfotenwegziehschwelle (%) Mittelwert [3, 17]: -35,1% | Veränderung der Pfotenwegziehschwelle (%) Mittelwert [3, 18]: -46,7% | Veränderung der Pfotenwegziehschwelle (%) Mittelwert [3, 19]: -40,6% | Veränderung der Pfotenwegziehschwelle (%) Mittelwert [3, 20]: -33,1% | Veränderung der Pfotenwegziehschwelle (%) Mittelwert [3, 21]: -44,7% | Veränderung der Pfotenwegziehschwelle (%) Mittelwert [3, 22]: -9,7% | Veränderung der Pfotenwegziehschwelle (%) Mittelwert [3, 23]: 0,0% | AUC Mittelwert (Laufradaktivität) ([4]; 2.8 mg/kg oral twice daily): 131.1 | AUC Mittelwert (Laufradaktivität) ([4]; 25 mg/kg oral twice daily): 216.7 | AUC Mittelwert (Laufradaktivität) ([4]; 75 mg/kg oral twice daily): 251.7 | Laufleistung nach Zymosan Injektion gegenüber der Vehikelgruppe ([4]; 7 days, twice daily): dosisabhängige Steigerung der Laufstrecke | Statistischer Unterschied gegenüber Vehikel [4, 11]: nein | Statistischer Unterschied gegenüber Vehikel [4, 12]: ja | Statistischer Unterschied gegenüber Vehikel [4, 13]: ja | thermische Hyperalgesie, comparison with Diclofenac ([5]; comparison data from an earlier study): erheblich stärker reduziert als das NSAID Diclofenac | thermische Hyperalgesie, duration of effect nach der letzten Substanzgabe ([5]; je 30 mg/kg i.p. (x3)): > 18 Std. | Veränderung der Pfotenwegziehzeit (%) Mittelwert [5, 14]: -16,6% | Veränderung der Pfotenwegziehzeit (%) Mittelwert [5, 15]: -31,3% | Veränderung der Pfotenwegziehzeit (%) Mittelwert [5, 16]: -30,2% | Veränderung der Pfotenwegziehzeit (%) Mittelwert [5, 17]: -15,3% | Veränderung der Pfotenwegziehzeit (%) Mittelwert [5, 18]: -16,0% | Veränderung der Pfotenwegziehzeit (%) Mittelwert [5, 19]: -9,7% | Veränderung der Pfotenwegziehzeit (%) Mittelwert [5, 20]: 5,0% | Veränderung der Pfotenwegziehzeit (%) Mittelwert [5, 21]: 3,4% | Veränderung der Pfotenwegziehzeit (%) Mittelwert [5, 22]: -3,8% | Veränderung der Pfotenwegziehzeit (%) Mittelwert [5, 23]: 0,0% | thermische Hyperalgesie, Seitenunterschied in der Pfotenwegziehzeit ([5]; je 30 mg/kg i.p., after the third dose): überhaupt kein Seitenunterschied in der Pfotenwegziehzeit mehr zu finden | thermische Hyperalgesie compared with Kontrollgruppe ([5]; je 30 mg/kg i.p., from two hours after Zymosan Injektion): geringer ausgeprägt als in der Kontrollgruppe
